Assay results reported in patent EP2438921A1, “23-O-Acetylshengmanol-3-O-beta-D-xylopyranoside and its medical use” (Universität Innsbruck, priority 2010, dated 2012).

Assays:
[1] = target: T1, GABAA receptors composed of α1, β2 and γ2S subunits (Homo sapiens, UniProt P14867+P18507+P47870); experiment: Modulation of GABA-induced chloride currents (IGABA), two-microelectrode voltage-clamp in Xenopus laevis oocytes expressing GABAA receptors; assay type: cell-based; conditions: for Stimulation of IGABA (%): 100 µM of compound, GABA EC3-10 concentration; for Maximal stimulation of IGABA: GABA EC3-10, α1β2γ2S receptors
T1 construct: expressed in transfected cells; host or cells: Xenopus laevis oocytes (stage V-VI), injected with cRNA transcribed from cDNA templates in pCMV vector; α1:β2:γ2S cRNA ratio 1:1:10
T1 sequence (P14867 28-456): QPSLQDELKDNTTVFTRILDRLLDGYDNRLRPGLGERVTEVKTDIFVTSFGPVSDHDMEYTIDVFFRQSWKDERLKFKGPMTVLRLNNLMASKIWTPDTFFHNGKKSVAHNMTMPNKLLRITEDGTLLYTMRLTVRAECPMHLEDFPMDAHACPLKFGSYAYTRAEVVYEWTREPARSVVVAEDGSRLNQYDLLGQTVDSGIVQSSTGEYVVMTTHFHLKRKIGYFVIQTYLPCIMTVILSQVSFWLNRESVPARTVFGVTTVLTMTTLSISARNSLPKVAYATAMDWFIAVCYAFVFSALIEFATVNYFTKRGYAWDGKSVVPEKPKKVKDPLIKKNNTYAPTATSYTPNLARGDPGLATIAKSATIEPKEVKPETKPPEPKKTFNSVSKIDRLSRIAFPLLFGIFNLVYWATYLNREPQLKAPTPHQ
T1 sequence (P47870 26-512): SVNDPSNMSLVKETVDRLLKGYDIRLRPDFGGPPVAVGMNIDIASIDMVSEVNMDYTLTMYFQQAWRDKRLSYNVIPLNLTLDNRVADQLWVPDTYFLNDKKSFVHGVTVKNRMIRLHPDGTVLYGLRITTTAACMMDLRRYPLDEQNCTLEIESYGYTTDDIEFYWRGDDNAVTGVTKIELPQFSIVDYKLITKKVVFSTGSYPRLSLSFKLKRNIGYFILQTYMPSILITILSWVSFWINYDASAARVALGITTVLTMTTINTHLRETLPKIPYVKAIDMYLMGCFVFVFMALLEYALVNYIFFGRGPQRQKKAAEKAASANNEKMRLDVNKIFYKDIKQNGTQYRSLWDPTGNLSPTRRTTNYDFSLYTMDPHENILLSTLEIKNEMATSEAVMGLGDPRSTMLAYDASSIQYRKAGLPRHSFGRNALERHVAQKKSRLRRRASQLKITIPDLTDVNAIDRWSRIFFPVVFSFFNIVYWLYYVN
T1 sequence (P18507 40-467 isoform P18507-1 limits assumed): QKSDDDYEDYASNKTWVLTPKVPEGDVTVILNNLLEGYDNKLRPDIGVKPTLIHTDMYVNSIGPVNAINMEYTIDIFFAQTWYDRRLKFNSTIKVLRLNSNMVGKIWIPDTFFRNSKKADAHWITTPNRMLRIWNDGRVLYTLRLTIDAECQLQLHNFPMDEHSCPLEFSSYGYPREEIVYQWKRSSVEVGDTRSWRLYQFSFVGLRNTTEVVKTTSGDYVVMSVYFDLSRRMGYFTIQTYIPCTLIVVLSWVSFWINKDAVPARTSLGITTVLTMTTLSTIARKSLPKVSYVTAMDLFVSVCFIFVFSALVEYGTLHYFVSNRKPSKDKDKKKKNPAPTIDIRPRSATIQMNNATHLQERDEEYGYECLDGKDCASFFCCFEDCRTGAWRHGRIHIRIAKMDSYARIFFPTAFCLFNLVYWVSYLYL
Method: Preparation of stage V-VI oocytes from Xenopus laevis, synthesis of capped off run-off poly(A^+) cRNA transcripts from linearized cDNA templates (pCMV vector) was performed as described (Khom et al. 2000). Briefly, female Xenopus laevis (NASCO, USA) were anaesthetised by exposing them for 15 minutes to a 0.2 % solution of MS-222 (methane sulfonate salt of 3-aminobenzoic acid ethyl ester; Sandoz) before surgically removing parts of the ovaries. Follicle membranes from isolated oocytes were enzymatically digested with 2 mg/ml collagenase (Type 1A, Sigma). One day after isolation, the oocytes were injected with about 10-50 nl of DEPC- treated water ([…], Sigma, Germany) containing the different cRNAs at a concentration of approximately 150 - 3000 ng/µl/subunit. The amount of cRNA was determined by means of a NanoDrop ND-1000 (Kisker-biotech, Steinfurt, Germany).
To ensure expression of the gamma-subunit, cRNAs were mixed in a ratio of 1:1:10 (Boileau et al., 2002). Oocytes were stored at 18°C in ND96 solution (Methfessel et al., 1986). Electrophysiological experiments were done using the two-microelectrode voyage-clamp method at a holding potential of -70 mV making use of a TURBO TEC 01C amplifier (npi electronic, Tamm, Germany) and an Axon Digidata 1322A interface (Molecular Devices, Sunnyvale, CA). Using pCLAMP v.9.2 data acquisition was carried out. The bath solution contained 90 mM NaCl, 1 mM KCI, 1 mM MgCl2·6H2O, 1 mM CaCl2 and 5 mM HEPES (pH 7.4). Microelectrodes were filled with 2M KCl and had resistances between 1 and 3 MΩ (Khom et al., 2007).
GABA and compound (extract, fraction or pure compound) were applied by means of fast perfusion system (see Baburin et al., 2006 for detail Drug or control solutions were applied by means of a TECAN Miniprep 60 permitting automation of the experiments. Oocytes with maximal current amplitudes >3 µA were discarded to exclude voltage-clamp errors (Khom et al., 2007).
Stimulation of chloride currents by modulators of the GABAA receptor was measured at a GABA concentration eliciting between 3 and 10% of the maximal current amplitude (EC3-10). The EC3-10 was determined at the beginning of each experiment. Enhancement of the chloride current was defined as (I(GABA+Comp)/IGABA) - 1, where I(GABA+Comp) is the current response in the presence of a given compound (extract, fraction or pure compound) and IGABA is the control GABA current. To measure the sensitivity of the GABAA receptor for a given compound, it was applied for an equilibration period of 1 minute before applying GABA ([…]). Concentration-response curves were generated and the data were fitted by non-iinear regression analysis using Origin software (OriginLab Corporation, USA). Data were fitted to the equation: (1)/(1 + (((EC50)/([Comp])))^nH), [formula] where nH is the Hill coefficient. Each data point represents the mean ± S.E. from at least 4 oocytes and ≥ 2 oocyte batches. Statistical significance was calculated using paired Student t-test with a confidence interval of p < 0.05.
As described above, dried and cut sub-aerial parts of A. racemosa were grinded and extracted with methanol. The resulting crude extract (A0) was subsequently partitioned between water and organic solvents of increasing polarity giving diethyl ether (A1), ethyl acetate (A2) and 1-butanol (A3) fractions. Obtained extracts and the remaining aqueous layer (A4) were tested for their ability to modulate IGABA at a concentration of 100 µg/mL. To analyse the modulation of IGABA by black cohosh extracts and isolated compounds, GABAA receptors composed of α1, β2 and γ2s subunits were expressed in Xenopus oocytes. Stimulation of IGABA was analysed by means of the 2-microelectrode voyage-clamp technique. These and all subsequent experiments were carried out at a GABA EC3-10 concentration.

mice [2] = experiment: Open Field Test (OF); assay type: in vivo, mice (C57BI/6N); conditions: for distance traveled in the open field in 10 min: 20 mg/kg/bodyweight i.p., 30 min prior to testing, control 38.2 ± 1.8 m
Method: (§1) Male mice (C57BI/6N) were obtained from Charles River Laboratories (Germany).
(§2) For maintenance mice were group housed with free access to food and water. Temperature was fixed to 23°C and 60% humidity with a 12 h light-dark cycle (lights on 0700-1900 hours). Mice at 3-8 months age were tested in all experiments (Khom et al., 2010).
(§3) Mice were transferred to the testing facility 24 h before commencement of experiments. Tests were performed between 0900 and 1300 hours. All tests were evaluated by an experimenter blinded to the administered compound, 30 min prior to testing animals were injected either with saline (0.9% NaCl-solution) as a control or with 23-O-acetylshengmanol-3-O-β-D-xylopyranosid (i.e., compound 4) and actein (i.e., compound 1), respectively (50 mg/250 µL stock prepared in 100% DMSO) at the indicated doses (0.2 mg/kg, 0.6 mg/kg, 2 mg/kg, 6 mg/kg, 20 mg/kg and 60 mg/kg bodyweight). All injection solutions contained 3% Polysorbat 80 and 10% of DMSO.
To determine explorative behaviour mice treated (n=9 for all doses) with compound 4 and control (n=11 mice were studied in the OF.
Open field behavior was tested over 10 min in a 50x50 cm box equipped with infrared rearing detection. Illumination was set to 150 lux. Explorative behavior was recorded and analyzed using the ActiMot 2 equipment (infrared beams) and software (TSE-systems, Bad Homburg, Germany). Arenas were subdivided into border (up to 8 cm from wall), center (20x20 cm, ie 16% of total area), and intermediate area according to the recommendations of EMPRESS (European Mouse Phenotyping Resource of Standardised Screens; http://empress.har.mrc.ac.uk).

[3] = target: T1, GABAA receptors composed of α1, β2 and γ2S subunits; experiment: Modulation of GABA-induced chloride currents (IGABA), two-microelectrode voltage-clamp in Xenopus laevis oocytes expressing GABAA receptors; assay type: cell-based; conditions: IGABA-max induced by application of 1mM GABA; data not shown
mice [4] = experiment: Light/Dark Choice Test (LDT); assay type: in vivo, mice (C57BI/6N)
Method: as §1, §2, §3
Explorative behavior in a brightly lit area (400 lux) was investigated by insertion of a black box into the open field arena, covering one third of the space. Time spent and distance travelled was measured over a 10 min period in the open area. One small field directly at the entrance to the black box was assigned as transition zone. To reach the larger compartment assigned as open area, the mouse had to leave the dark area completely. Behaviour was recorded and analyzed by means of the ActiMot2 system and software (TSE-systems, Bad Homburg, Germany).

mice [5] = experiment: Stress-induced Hyperthermia Test (SIH); assay type: in vivo, mice (C57BI/6N)
Method: as §1, §2, §3
A temperature probe, lubricated with petrolatum, was inserted into the rectum of the mouse for a depth of up to 2 cm. […]
Prior to i.p injection of compound or saline the basal body temperature was determined. 3h after i.p injection, temperature was measured twice by means of a TH-5 Thermalert Monitoring Thermometer combined with a RET-3 rectal probe for mice. […]

Row | Compound | Stimulation of IGABA (%) [1] [%] | EC50 [1] [µM] | Maximal stimulation of IGABA ([1]; compound 4 at 300 µM) [%] | further results
1 | CC(=O)O[C@@H]1C[C@@]23C[C@@]24CC[C@H](O[C@@H]2OC[C@@H](O)[C@H](O)[C@H]2O)C(C)(C)[C@@H]4CC[C@H]3[C@]2(C)C[C@@H]3O[C@@]4(C[C@@H](C)[C@@H]3[C@@]12C)OC[C@@]1(C)O[C@@H]41 [Compound 3, 23-epi-26-deoxyactein] | 10 ± 4 |  |  | 
2 | CC(=O)O[C@@H]1C[C@@]23C[C@@]24CC[C@H](O[C@@H]2OC[C@@H](O)[C@H](O)[C@H]2O)C(C)(C)[C@@H]4CC=C3[C@]2(C)C[C@@H]3O[C@@]4(O)[C@H](OC(C)(C)[C@H]4O)[C@@H](C)[C@@H]3[C@@]12C [Compound 5, cimiracemoside F] | 5 ± 2 |  |  | 
3 | CC(=O)O[C@H](C[C@@H](C)[C@H]1C(=O)[C@H](O)[C@@]2(C)[C@@H]3CC[C@H]4C(C)(C)[C@@H](O)CC[C@@]45C[C@@]35CC[C@]12C)[C@@H]1OC1(C)C [Compound 4a, 23-O-acetylshengmanol] | 64 ± 14 |  |  | 
4 | CC(=O)OC(C)(C)[C@H]1O[C@@]23O[C@@H]1C[C@@H](C)[C@@H]2[C@@]1(C)CC[C@@]24C[C@@]25CC[C@H](O[C@@H]2OC[C@H](O)[C@H](O)[C@H]2O)C(C)(C)[C@@H]5CC[C@H]4[C@]1(C)[C@H]3O [Compound 8, 25-O-acetylcimigenol-3-O-α-L-arabinopyranoside] |  | 26 ± 7 | 289 ± 45 | Emax at 300 µM ([1]; read-out: Maximal stimulation of IGABA, GABA EC3-10, α1β2γ2S receptors, compound 4 at 300 µM): < 300%
5 | CC(=O)OC(CC(C)C1C(=O)C(O)C2(C)C3CCC4C(C)(C)C(OC5OCC(O)C(O)C5O)CCC45CC35CCC12C)C1OC1(C)C [Compound 4, 23-O-acetylshengmanol-3-O-β-D-xylopyranoside] |  | 27 ± 8 |  | distance traveled in the open field in 10 min (mice [2]): 22.6 ± 2.8 m; ambulation in all areas of the OF and overall ambulation compared to control (mice [2]; doses ≥2 mg/kg/bodyweight i.p.): significantly (p<0.05) decreased ambulation; reduced distance compared to control littermates (mice [2]; doses ≥20 mg/kg i.p.): approximately 50%; IGABA enhancement, times stronger than the other isolated compounds ([1]; 100 µM, GABA EC3-10): about 10 times; chloride currents induced in the absence of GABA [3]: ≤ 1 % of IGABA-max; distance travelled in the lit area (mice [4]; i.p., data not shown): without significant effects; time spent in the lit area (400 Lux) (mice [4]; ip, 0.6 mg/kg, 10 min): 265 ± 52 s; Transitions from the dark compartment to the lit area (mice [4]; vs vehicle group, data not shown): did not differ; body temperature increase upon stress (ΔT) (mice [5]; 6 mg/kg/bodyweight i.p., 3h after injection, control 1.2 ± 0.1°): 0.1 ± 0.1 °; body temperature increase upon stress (ΔT) compared to control (mice [5]; i.p., doses of Figure 9): significantly (p<0.05) smaller increase
6 | C[C@@H]1C[C@H]2O[C@@]3(O[C@@H]2C(C)(C)O)[C@H](O)[C@@]2(C)[C@@H]4CC[C@H]5C(C)(C)[C@@H](O[C@@H]6OC[C@@H](O)[C@H](O)[C@H]6O)CC[C@@]56C[C@@]46CC[C@]2(C)[C@@H]13 [Compound 6, cimigenol-3-O-β-D-xylopyranoside] |  | 28 ± 17 | 256 ± 40 | 
7 | CC(=O)O[C@@H]1C[C@@]23C[C@@]24CC[C@H](O[C@@H]2OC[C@@H](O)[C@H](O)[C@H]2O)C(C)(C)[C@@H]4CC[C@H]3[C@]2(C)C[C@@H]3O[C@]4(C[C@@H](C)[C@@H]3[C@@]12C)O[C@H](O)[C@@]1(C)O[C@@H]41 [Compound 1, actein] |  | 36 ± 14 | 378 ± 64 | distance traveled in the open field in 10 min (mice [2]): 30.6 ± 2.1 m
8 | 12-acetylacteol [Compound 1a] | 126 ± 29 |  |  | 
9 | CC(=O)OC1CC23CC24CCC(OC2OCC(O)C(O)C2O)C(C)(C)C4CCC3C2(C)CC3OC4(CC(C)C3C12C)OCC1(C)OC14 (centres unmarked) [Compound 2, 26-deoxyactein] | 10 ± 6 |  |  | 
10 | C=C(C)[C@H]1O[C@@]23O[C@@H]1C[C@@H](C)[C@@H]2[C@@]1(C)CC[C@@]24C[C@@]25CC[C@H](O[C@@H]2OC[C@@H](O)[C@H](O)[C@H]2O)C(C)(C)[C@@H]5CC[C@H]4[C@]1(C)[C@H]3O [Compound 10, 25-O-anhydrocimigenol-3-O-β-D-xylopyranoside] | -76 ± 7 | 26 ± 7 |  | 
